Laboratory results as given in patent publication US20230233569A1 (Revolution Medicines, Inc., priority 2020, published 2023).
Several values for one entry are separate records, joined by “and”; a condition that tells them apart may be missing. Equal values may be shown once. Read-outs that look alike come from different tables or passages of the source.

Tests used:
NCI-H358 (K-Ras G12C) = test: CellTiter-Glo cell viability assay, 5-day treatment; format: cell-based; conditions: Homo sapiens
Method: (§1) Protocol: CellTiter-Glo® Cell Viability Assay
(§2) Note—The following protocol describes a procedure for monitoring cell viability of K-Ras mutant cancer cell lines in response to a compound of the invention. Other RAS isoforms may be employed, though the number of cells to be seeded will vary based on cell line used.
(§3) Test compounds (132.5 nL) were directly dispensed into the assay plates containing cells. […] On day 5, assay plates and their contents were equilibrated to room temperature for approximately 30 minutes. […] Luminescence was measured using the PerkinElmer Enspire. Data were normalized by the following: (Sample signal/Avg. DMSO)*100. The data were fit using a four-parameter logistic fit.
as §3, with “nl)” for “nL)”

KRAS G13C = KRAS G13C (Homo sapiens, UniProt P01116+P62937, G13C); test: Disruption of BRAF RBD interaction with Ras (FRET / MOA assay, with Cyclophilin A); format: biochemical
Chain of KRAS G13C (P01116 1-169 isoform P01116-2 G13C): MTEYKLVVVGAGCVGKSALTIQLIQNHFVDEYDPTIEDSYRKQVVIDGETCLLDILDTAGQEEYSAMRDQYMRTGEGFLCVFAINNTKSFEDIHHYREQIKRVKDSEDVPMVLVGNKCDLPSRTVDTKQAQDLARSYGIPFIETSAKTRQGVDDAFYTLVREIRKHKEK
Chain of KRAS G13C (P62937 whole entry): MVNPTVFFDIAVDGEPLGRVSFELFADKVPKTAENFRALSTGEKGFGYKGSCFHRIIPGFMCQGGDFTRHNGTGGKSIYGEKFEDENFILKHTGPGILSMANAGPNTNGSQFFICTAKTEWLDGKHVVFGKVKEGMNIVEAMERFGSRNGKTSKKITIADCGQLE
Description: (§4) This protocol may also be executed substituting other Ras proteins or nucleotides.
(§5) The purpose of this biochemical assay was to measure the ability of test compounds to facilitate ternary complex formation between a nucleotide-loaded K-Ras isoform and Cyclophilin A; the resulting ternary complex disrupts binding to a BRAF^RBD construct, inhibiting K-Ras signaling through a RAF effector. Data is reported as IC50 values.
(§6) Compound was present in plate wells as a 10-point 3-fold dilution series starting at a final concentration of 30 μM. After incubation at 25° C. for 3 hours, a mixture of Anti-His Eu-W1024 and anti-GST allophycocyanin was then added to assay sample wells at final concentrations of 10 nM and 50 nM, respectively, and the reaction incubated for an additional 1.5 hours. […] Compounds that facilitate disruption of a K-Ras:RAF complex were identified as those eliciting a decrease in the TR-FRET ratio relative to DMSO control wells.
as §5, with “BRAF^RBDD” for “BRAF^RBD”

KRAS G12C = KRAS G12C (Homo sapiens, UniProt P01116+P62937, G12C); test: as above; format: biochemical
Chain of KRAS G12C (P01116 1-169 isoform P01116-2 G12C): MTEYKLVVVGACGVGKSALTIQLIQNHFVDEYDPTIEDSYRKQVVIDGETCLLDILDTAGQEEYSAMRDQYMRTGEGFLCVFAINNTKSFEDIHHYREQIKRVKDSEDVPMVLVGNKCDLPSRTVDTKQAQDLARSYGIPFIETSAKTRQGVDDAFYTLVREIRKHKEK
Chain of KRAS G12C (P62937 whole entry): as the sequence (P62937 whole entry) above
Description: as §4, §5, §6
as §5, with “BRAF^RBDD” for “BRAF^RBD”

KRAS G12V = KRAS G12V (Homo sapiens, UniProt P01116+P62937, G12V); test: as above; format: biochemical; conditions: KRAS G12V; read-out: KRAS G12V FRET data IC50
Chain of KRAS G12V (P01116 1-169 isoform P01116-2 G12V limits assumed): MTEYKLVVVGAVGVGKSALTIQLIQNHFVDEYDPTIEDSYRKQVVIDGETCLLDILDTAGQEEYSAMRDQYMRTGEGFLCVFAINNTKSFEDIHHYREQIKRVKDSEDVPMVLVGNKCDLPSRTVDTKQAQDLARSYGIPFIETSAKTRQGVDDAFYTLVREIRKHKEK
Chain of KRAS G12V (P62937 whole entry): as the sequence (P62937 whole entry) above
Description: as §4, §5, §6
as §5, with “BRAF^RBDD” for “BRAF^RBD”

KRAS G13D = KRAS G13D (Homo sapiens, UniProt P01116+P62937, G13D); test: as above; format: biochemical; conditions: KRAS G13D; read-out: KRAS G13D FRET data IC50
Chain of KRAS G13D (P01116 1-169 isoform P01116-2 G13D limits assumed): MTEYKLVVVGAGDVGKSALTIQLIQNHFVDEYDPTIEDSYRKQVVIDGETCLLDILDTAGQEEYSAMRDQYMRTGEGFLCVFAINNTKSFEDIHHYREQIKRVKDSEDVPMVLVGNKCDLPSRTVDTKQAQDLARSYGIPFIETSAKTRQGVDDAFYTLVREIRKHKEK
Chain of KRAS G13D (P62937 whole entry): as the sequence (P62937 whole entry) above
Description: as §4, §5, §6
as §5, with “BRAF^RBDD” for “BRAF^RBD”

KRAS G12D = KRAS G12D (Homo sapiens, UniProt P01116+P62937, G12D); test: as above; format: biochemical; conditions: read-out: KRAS G12D FRET data, IC50
Chain of KRAS G12D (P01116 1-169 isoform P01116-2 G12D limits assumed): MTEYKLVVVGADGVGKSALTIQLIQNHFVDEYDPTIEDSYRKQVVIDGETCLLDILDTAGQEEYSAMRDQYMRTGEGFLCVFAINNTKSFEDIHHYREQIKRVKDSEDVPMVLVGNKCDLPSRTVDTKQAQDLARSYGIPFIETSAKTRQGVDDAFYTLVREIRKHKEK
Chain of KRAS G12D (P62937 whole entry): as the sequence (P62937 whole entry) above
Description: as §4, §5, §6
as §5, with “BRAF^RBDD” for “BRAF^RBD”

NRAS G12C = NRAS G12C (Homo sapiens, UniProt P01111+P62937, G12C); test: as above; format: biochemical; conditions: NRAS G12C; read-out: NRAS G12C FRET data IC50
Chain of NRAS G12C (P01111 whole entry G12C): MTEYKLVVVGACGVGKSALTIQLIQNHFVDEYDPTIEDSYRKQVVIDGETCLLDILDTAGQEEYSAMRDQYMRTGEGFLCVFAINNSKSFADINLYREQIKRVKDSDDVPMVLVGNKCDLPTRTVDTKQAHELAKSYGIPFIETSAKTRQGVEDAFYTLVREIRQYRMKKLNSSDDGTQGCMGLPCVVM
Chain of NRAS G12C (P62937 whole entry): as the sequence (P62937 whole entry) above
Description: as §4, §5, §6
as §5, with “BRAF^RBDD” for “BRAF^RBD”

KRAS G12S = KRAS G12S (Homo sapiens, UniProt P01116+P62937, G12S); test: as above; format: biochemical; conditions: read-out: KRAS G12S FRET data, IC50
Chain of KRAS G12S (P01116 1-169 isoform P01116-2 G12S limits assumed): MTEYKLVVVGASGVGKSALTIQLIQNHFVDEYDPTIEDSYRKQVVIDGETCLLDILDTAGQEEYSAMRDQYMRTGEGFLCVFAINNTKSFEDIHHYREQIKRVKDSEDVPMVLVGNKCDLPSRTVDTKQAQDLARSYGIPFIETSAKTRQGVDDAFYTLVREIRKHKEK
Chain of KRAS G12S (P62937 whole entry): as the sequence (P62937 whole entry) above
Description: as §4, §5, §6
as §5, with “BRAF^RBDD” for “BRAF^RBD”

KRAS WT = KRAS WT (Homo sapiens, UniProt P01116+P62937); test: as above; format: biochemical; conditions: KRAS WT; read-out: KRAS WT FRET data IC50
Chain of KRAS WT (P01116 1-169 isoform P01116-2 limits assumed): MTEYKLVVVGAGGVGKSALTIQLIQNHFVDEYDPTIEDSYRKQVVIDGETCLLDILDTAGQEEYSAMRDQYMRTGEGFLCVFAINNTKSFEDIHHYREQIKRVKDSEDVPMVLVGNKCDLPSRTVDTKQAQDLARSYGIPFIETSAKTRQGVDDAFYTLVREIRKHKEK
Chain of KRAS WT (P62937 whole entry): as the sequence (P62937 whole entry) above
Description: as §4, §5, §6
as §5, with “BRAF^RBDD” for “BRAF^RBD”

Capan-1 (K-Ras G12V) = test: CellTiter-Glo cell viability assay, 5-day treatment; format: cell-based; conditions: Homo sapiens, CAPAN-1, 120 h, 5-day treatment; read-out: Capan-1 Cell Viability assay data (K-Ras G12V, IC50)
Method: as §1, §2, §3
as §3, with “nl)” for “nL)”

[1] = NCI-H358, 120 h, 5-day treatment, read-out: H358 Cell Viability assay data (K-Ras G12C, IC50)
[2] = read-out: KRAS G13C FRET data, IC50
[3] = read-out: KRAS G12C FRET data, IC50
[4] = NCI-H358, H358, K-Ras G12C, read-out: Additional H358 Cell Viability assay data (K-Ras G12C, IC50)
[5] = KRAS G13C, read-out: KRAS G13C FRET data IC50
[6] = KRAS G12C, read-out: KRAS G12C FRET data IC50

CCn1c(-c2cccnc2[C@H](C)OC)c2c3cc(ccc31)-c1csc(n1)C[C@H](NC(=O)[C@H](C(C)C)N(C)C(=O)[C@H]1CCN(C(=O)OC)C1)C(=O)N1CCC[C@H](N1)C(=O)OCC(C)(C)C2 [Example A116]
IC50 (NCI-H358 (K-Ras G12C); [1]): 100 to 1000 nM
IC50 (KRAS G13C; [2]): 1000 to 10000 nM and > 10000 nM
IC50 (KRAS G12C; [3]): 1000 to 10000 nM and > 10000 nM
IC50 (KRAS G12V): 1000 to 10000 nM and > 10000 nM
IC50 (KRAS G13D): 1000 to 10000 nM and > 10000 nM
IC50 (KRAS G12D): > 10000 nM
IC50 (NRAS G12C): 1000 to 10000 nM and > 10000 nM
IC50 (KRAS G12S): 1000 to 10000 nM and > 10000 nM
IC50 (KRAS WT): 1000 to 10000 nM and > 10000 nM

CCn1c(-c2cccnc2[C@H](C)OC)c2c3cc(ccc31)-c1cc(O)cc(c1)C[C@H](NC(=O)[C@H](C(C)C)N(C)C(=O)C1(F)CC1)C(=O)N1CCC[C@H](N1)C(=O)OCC(C)(C)C2 [Example A165]
IC50 (Capan-1 (K-Ras G12V)): 10 to 100 nM
IC50 (KRAS G12V): 10 to 100 nM

CCn1c(-c2cccnc2[C@H](C)OC)c2c3cc(ccc31)-c1csc(n1)C[C@H](NC(=O)[C@H](C(C)C)N1CCC3(CN(C)C3)C1=O)C(=O)N1CCC[C@H](N1)C(=O)OCC(C)(C)C2 [Example A222]
IC50 (Capan-1 (K-Ras G12V)): > 10000 nM
IC50 (KRAS G12V): > 10000 nM
IC50 (NRAS G12C): > 10000 nM

CCn1c(-c2cccnc2[C@H](C)OC)c2c3cc(ccc31)-c1cc(O)cc(c1)C[C@H](NC(=O)C1CCCC1C(F)F)C(=O)N1CCC[C@H](N1)C(=O)OCC(C)(C)C2 (stereo partly shown) [Example A254]
IC50 (NCI-H358 (K-Ras G12C); [1]): 1000 to 10000 nM
IC50 (KRAS G13C; [2]): 100 to 1000 nM
IC50 (KRAS G12C; [3]): 100 to 1000 nM
IC50 (KRAS G12V): 100 to 1000 nM
IC50 (KRAS G13D): 100 to 1000 nM
IC50 (KRAS G12D): 1000 to 10000 nM
IC50 (NRAS G12C): 100 to 1000 nM
IC50 (KRAS G12S): 100 to 1000 nM
IC50 (KRAS WT): 100 to 1000 nM

C=CC(=O)N1CC[C@H](C(=O)N(C)[C@H](C(=O)N[C@H]2Cc3nc(cs3)-c3ccc4c(c3)c(c(-c3cccnc3[C@H](C)OC)n4CC)CC(C)(C)CN(C)C[C@@H]3CCCN(N3)C2=O)C(C)C)C1 [Example A287]
IC50 (NCI-H358 (K-Ras G12C); [4]): > 1000 nM
IC50 (KRAS G13C; [5]): > 10000 nM
IC50 (KRAS G12C; [6]): > 10000 nM
IC50 (KRAS G12V): > 10000 nM
IC50 (KRAS G13D): > 10000 nM
IC50 (KRAS G12D): > 10000 nM
IC50 (NRAS G12C): > 10000 nM
IC50 (KRAS G12S): > 10000 nM
IC50 (KRAS WT): > 10000 nM

C=CC(=O)N1C[C@@H](C(=O)N(C)[C@H](C(=O)N[C@H]2Cc3cccc(c3)-c3ccc4c(c3)c(c(-c3cccnc3[C@H](C)OC)n4CC)CC(C)(C)COC(=O)[C@@H]3CCCN(N3)C2=O)C(C)C)[C@@H](C(F)(F)F)C1 [Example A401]
IC50 (NCI-H358 (K-Ras G12C); [4]): 100 to 1000 nM
IC50 (KRAS G13C; [5]): 100 to 1000 nM
IC50 (KRAS G12C; [6]): 1000 to 10000 nM
IC50 (KRAS G12V): 1000 to 10000 nM
IC50 (KRAS G13D): 1000 to 10000 nM
IC50 (KRAS G12D): > 10000 nM
IC50 (NRAS G12C): 1000 to 10000 nM
IC50 (KRAS G12S): 1000 to 10000 nM
IC50 (KRAS WT): 1000 to 10000 nM

CCn1c(-c2cc(N3CCN(C)CC3)cnc2[C@H](C)OC)c2c3cc(ccc31)-c1csc(n1)C[C@H](NC(=O)[C@H](C(C)C)N(C)C(=O)N1CC(OC)C1)C(=O)N1CCC[C@H](N1)C(=O)OCC(C)(C)C2 [Example A466]
IC50 (Capan-1 (K-Ras G12V)): < 10 nM

CCn1c(-c2cccnc2[C@H](C)OC)c2c3cc(ccc31)-c1csc(n1)C[C@H](NC(=O)[C@H](C(C)C)N(C)C(=O)N1CC(Cc3cnn(C)c3)C1)C(=O)N1CCC[C@H](N1)C(=O)OCC(C)(C)C2 [Example A500]
IC50 (Capan-1 (K-Ras G12V)): < 10 nM
